Source: article PMC12051620, “Molecular basis underlying the specificity of an antagonist AA92593 for mammalian melanopsins” (The Journal of Biological Chemistry, 2025)

Target: T1, mouse melanopsin F94^2.61C/S188^ECL2T/S269^6.52A mutant (Mus musculus, UniProt Q9QXZ9, F126C/S221T/S310A)
T1 construct: expressed in transfected cells; host or cells: COS-1
Assay: NanoBiT Gq dissociation assay
Format: cell-based
Details: 1.67 and 16.7 μM AA92593; COS-1 cells
Text: As described above, we have assessed the inhibitory effect of AA92593 using the GsX GloSensor assay. To confirm whether an antagonistic effect could be observed in another experimental system, we used the NanoBiT G protein dissociation assay ([23]). In this assay, Gq activation (dissociation) is detected as a decrease in NanoLuc luminescence from the Lg-BiT fragment inserted with Gqα and the Sm-BiT fragment fused with Gβγ (see “Experimental procedures”) ([23], [24]). If an antagonistic effect is observed in the NanoBiT assay, the light-dependent decrease in luminescence (Gq dissociation) by melanopsin would be reduced in the presence of AA92593. […]
For GloSensor assay, opsins, GloSensor assay sensor (coded by pGlo-22F), and NanoBiT-tagged G proteins were transiently expressed in COS-1 cells (kindly provided from Dr David Farrens, Oregon Health and Science University) using PEI as described previously ([24], [52]). […] For GFP-fluorescence microscopy, a 35-mm cell culture dish (IWAKI) was transfected with 2 μg melanopsin-GFP plasmid and 8 μg PEI in 400 μl Opti-mem and 1.2 ml D-MEM. […]
The transfected COS-1 cells were incubated at 37 °C, 5% CO2 for 1 day, and the medium was aspirated, followed by the addition of 50 μl of HBSS containing 33.3, 3.33, or 0 μM AA92593, 0.5% DMSO, and 10 μM coelenterazine h (Wako). […] Luminescence was measured using GM-2000 or GM-3510 microplate reader (Promega). […]

T1 sequence (Q9QXZ9 1-381 F126C/S221T/S310A): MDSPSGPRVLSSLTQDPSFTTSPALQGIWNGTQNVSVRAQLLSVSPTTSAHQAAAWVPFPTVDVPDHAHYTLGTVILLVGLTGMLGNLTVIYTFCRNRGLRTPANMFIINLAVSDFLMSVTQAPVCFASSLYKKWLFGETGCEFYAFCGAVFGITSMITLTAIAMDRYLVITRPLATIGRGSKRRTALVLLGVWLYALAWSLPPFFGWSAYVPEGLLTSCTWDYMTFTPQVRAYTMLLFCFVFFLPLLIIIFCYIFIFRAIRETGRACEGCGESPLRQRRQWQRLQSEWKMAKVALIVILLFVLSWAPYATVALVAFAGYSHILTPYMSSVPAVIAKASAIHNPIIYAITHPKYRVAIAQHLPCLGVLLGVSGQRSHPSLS

## COc1ccc(S(=O)(=O)N2CCCCC2)cc1C [AA92593]
  antagonistic effect on Gq activation compared to WT: similarly reduced
